Legend:
Surinam grass = test: Test C pre-/postemergence test; type: in vivo, Brachiaria decumbens; details: Preemergence
In short: (§1)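 Seeds were planted and treated preemergence with test chemical in a non-phytotoxic solvent mixture containing surfactant. Postemergence applications of the same formulation went onto plants 2 to 18 cm tall (1- to 4-leaf stage). A dash marks no test result.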

barnyardgrass = test: Test A pre-/postemergence greenhouse test; type: in vivo, Echinochloa crus-galli; details: for Barnyardgrass plant response rating: 0 to 100 scale
In short: (§2)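 Each test compound, dissolved in a non-phytotoxic solvent mixture with surfactant, was sprayed directly onto seeded soil (loam/sand blend) and, at the same moment, onto seedlings carrying one to two leaves. Around ten greenhouse days later, plants were rated visually for injury relative to untreated controls.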

[1] = test system: common (oilseed) sunflower; test: Test C pre-/postemergence test; type: in vivo, Helianthus annuus; details: Preemergence
In short: as §1

giant foxtail = test: Test A pre-/postemergence greenhouse test; type: in vivo, Setaria faberi; details: for Foxtail, Giant plant response rating: 0 to 100 scale
In short: as §2

umbrella sedge = test: Test C flooded paddy test; type: in vivo, Cyperus difformis; details: Flood
In short: (§3)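 In-water treatment: compound dosed into 3 cm flood over soil, water level unchanged throughout. Controls run alongside; visual assessment at day 13–15.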

eastern black nightshade = test: Test C pre-/postemergence test; type: in vivo, Solanum ptycanthum; details: Preemergence
In short: as §1

lambsquarters = test: Test C pre-/postemergence test; type: in vivo, Chenopodium album; details: Preemergence
In short: as §1

pigweed = test: Test C pre-/postemergence test; type: in vivo, Amaranthus retroflexus; details: Preemergence
In short: as §1

crabgrass = test: Test C pre-/postemergence test; type: in vivo, Digitaria sanguinalis; details: Preemergence
In short: as §1

wheat [2] = test: Test C pre-/postemergence test; type: in vivo, Triticum aestivum; details: Preemergence
In short: as §1

wheat [3] = test: Test A pre-/postemergence greenhouse test; type: in vivo, Triticum aestivum; details: for Wheat plant response rating: 0 to 100 scale
In short: as §2

bermudagrass = test: Test C pre-/postemergence test; type: in vivo, Cynodon dactylon
In short: as §1

redroot pigweed = test: Test A pre-/postemergence greenhouse test; type: in vivo, Amaranthus retroflexus; details: for Pigweed plant response rating: 0 to 100 scale
In short: as §2

corn = test: Test A pre-/postemergence greenhouse test; type: in vivo, Zea mays; details: for Corn plant response rating: 0 to 100 scale
In short: as §2

Goosegrass = test: Test C pre-/postemergence test; type: in vivo, Eleusin indica; details: Preemergence
In short: as §1

morningglory = test: Test A pre-/postemergence greenhouse test; type: in vivo, Ipomoea spp.; details: for Morningglory plant response rating: 0 to 100 scale
In short: as §2

rice = test: Test C flooded paddy test; type: in vivo, Oryza sativa; details: Flood
In short: as §3

[4] = 31 g ai/ha, scale 0 to 100 (0 no effect, 100 complete control)
[5] = Postemergence, 125 g ai/ha, 0 is no effect, 100 is complete control
[6] = Postemergence, 500 g ai/ha, 0 is no effect, 100 is complete control
[7] = Preemergence, 125 g ai/ha, 0 no effect, 100 complete control
[8] = Preemergence, 500 g ai/ha, 0 to 100 scale where 0 is no effect and 100 is complete control
[9] = 62 g ai/ha, scale 0 to 100, 0 no effect, 100 complete control, 13 to 15 days
[10] = 125 g ai/ha, scale 0 to 100, 0 no effect, 100 complete control, 13 to 15 days

Structure (SMILES): Cn1nc(C(F)(F)F)c(C[S+]([O-])c2cc(C(C)(C)C)cc[n+]2[O-])c1OC(F)F (racemic) [Compound 24]
- Surinam Grass plant response rating (Surinam grass; 62 g ai/ha, scale 0 to 100): 40
- Plant response rating, Surinam Grass (Surinam grass; [4]): 20
- Barnyardgrass plant response rating (barnyardgrass; [5]): 30
- Barnyardgrass plant response rating (barnyardgrass; [6]): 50
- Barnyardgrass plant response rating (barnyardgrass; [7]): 60
- Plant response rating, Barnyardgrass (barnyardgrass; [8]): 100
- Sunflower plant response rating ([1]; 62 g ai/ha, scale 0 to 100): 0
- Plant response rating, Sunflower [1, 4]: 0
- Foxtail, Giant plant response rating (giant foxtail; [5]): 30
- Foxtail, Giant plant response rating (giant foxtail; [6]): 70
- Foxtail, Giant plant response rating (giant foxtail; [7]): 100
- Plant response rating, Foxtail, Giant (giant foxtail; [8]): 100
- Plant response rating, Sedge, Umbrella (umbrella sedge; [4]): 60
- Plant response rating, Sedge, Umbrella (umbrella sedge; [9]): 85
- Plant response rating, Sedge, Umbrella (umbrella sedge; [10]): 95
- Plant response rating, Sedge, Umbrella (umbrella sedge; 250 g ai/ha, scale 0 to 100, 0 no effect, 100 complete control, 13 to 15 days): 95
- Nightshade plant response rating (eastern black nightshade; 62 g ai/ha, scale 0 to 100): 100
- Plant response rating, Nightshade (eastern black nightshade; [4]): 100
- Lambsquarters plant response rating (lambsquarters; 62 g ai/ha, scale 0 to 100): 100
- Plant response rating, Lambsquarters (lambsquarters; [4]): 85
- Pigweed plant response rating (pigweed; 62 g ai/ha, scale 0 to 100): 100
- Plant response rating, Pigweed (pigweed; [4]): 100
- Crabgrass, Large plant response rating (crabgrass; 62 g ai/ha, scale 0 to 100): 100
- Plant response rating, Crabgrass, Large (crabgrass; [4]): 100
- Plant response rating (0 to 100), Crabgrass, Large (crabgrass; 250 g ai/ha): 100
- Wheat plant response rating (wheat [2]; 62 g ai/ha, scale 0 to 100): 40
- Plant response rating, Wheat (wheat [2]; [4]): 0
- Wheat plant response rating (wheat [3]; [5]): 0
- Wheat plant response rating (wheat [3]; [6]): 30
- Wheat plant response rating (wheat [3]; [7]): 50
- Plant response rating, Wheat (wheat [3]; [8]): 90
- Bermudagrass plant response rating (bermudagrass; 62 g ai/ha, Preemergence, scale 0 to 100 (0 no effect, 100 complete control)): 85
- Plant response rating, Bermudagrass (bermudagrass; Preemergence, 31 g ai/ha, scale 0 to 100 (0 no effect, 100 complete control)): 75
- Plant response rating (0 to 100), Bermudagrass (bermudagrass; Preemergence, 250 g ai/ha): 100
- Bermudagrass plant response rating (bermudagrass; preemergence, 125 g ai/ha, scale 0 (no effect) to 100 (complete control)): 100
- Pigweed plant response rating (redroot pigweed; [5]): 20
- Pigweed plant response rating (redroot pigweed; [6]): 50
- Pigweed plant response rating (redroot pigweed; [7]): 100
- Plant response rating, Pigweed (redroot pigweed; [8]): 100
- Corn plant response rating (corn; [5]): 0
- Corn plant response rating (corn; [6]): 40
- Corn plant response rating (corn; [7]): 0
- Plant response rating, Corn (corn; [8]): 40
- Goosegrass plant response rating (Goosegrass; 62 g ai/ha, scale 0 to 100): 100
- Plant response rating, Goosegrass (Goosegrass; [4]): 85
- Plant response rating (0 to 100), Goosegrass (Goosegrass; 250 g ai/ha): 100
- Morningglory plant response rating (morningglory; [5]): 40
- Morningglory plant response rating (morningglory; [6]): 90
- Morningglory plant response rating (morningglory; [7]): 70
- Plant response rating, Morningglory (morningglory; [8]): 90
- Plant response rating, Rice (rice; [4]): 0
- Plant response rating, Rice (rice; [9]): 30
- Plant response rating, Rice (rice; [10]): 45
- Plant response rating, Rice (rice; 250 g ai/ha, scale 0 to 100 (0 no effect, 100 complete control)): 80

— patent US20100298141A1, “SUBSTITUTED PYRIDINE N-OXIDE HERBICIDES” (E. I. DU PONT DE NEMOURS AND COMPANY, priority 2007, published 2010)
